How the values were obtained:
Type in all cases: in vivo
Puccinia recondita = assay: Curative activity against brown rust of wheat caused by Puccinia recondita; settings: curative spray 24 h after inoculation, wheat seedlings "Kanzler", 7 days
Procedure: (§1) The active compounds were prepared separately or jointly as a 10% strength emulsion in a mixture of 70% by weight of cyclohexanone, 20% by weight of Nekanil® LN (Lutensol® AP6, wetting agent having emulsifying and dispersing action based on ethoxylated alkylphenols) and 10% by weight of Wettol® EM (nonionic emulsifier based on ethoxylated castor oil) and diluted with water to the desired concentration.
Leaves of potted wheat seedlings of the cultivar “Kanzler” were dusted with spores of brown rust (Puccinia recondita). The pots were then placed in a chamber with high atmospheric humidity (90 to 95%) at 20-22° C. for 24 hours. During this period, the spores germinated and the germinal tubes penetrated into the leaf tissue. The following day, the infected plants were sprayed to runoff point with an aqueous preparation of active compound which had been prepared from a stock solution made of 10% of active compound, 85% of cyclohexanone and 5% of emulsifier. After the spray coating had dried on, the test plants were cultivated in a greenhouse at 20-22° C. and 65-70% relative atmospheric humidity for 7 days. The extent of the rust fungus development on the leaves was then determined.

Pyrenophora teres = assay: Activity against net blotch of barley caused by Pyrenophora teres; settings: barley seedlings "Igri", inoculated 24 h after spraying, 6 days
Procedure: as §1
Leaves of potted barley seedlings of the cultivar “Igri” were sprayed to runoff point with an aqueous preparation of active compound which had been prepared from a stock solution made of 10% of active compound, 85% of cyclohexanone and 5% of emulsifier and were inoculated 24 hours after the spray coating had dried on with an aqueous spore suspension of Pyrenophora teres, the net blotch pathogen. The test plants were then placed in a greenhouse at 20-24° C. and 95-100% relative atmospheric humidity. After 6 days, the extent of the development of the disease was determined visually in % infection of the entire leaf area.

[1] = system: Blumeria graminis forma specialis tritici; assay: Activity against mildew of wheat caused by Blumeria graminis forma specialis tritici; settings: wheat seedlings "Kanzler", dusted with spores 24 h after spraying, 7 days
Procedure: as §1
Leaves of potted wheat seedlings of the cultivar “Kanzler” were sprayed to runoff point with an aqueous preparation of active compound which had been prepared from a stock solution made of 10% of active compound, 85% of cyclohexanone and 5% of emulsifier and were dusted 24 hours after the spray coating had dried on with spores of mildew of wheat (Blumeria graminis forma specialis tritici). The test plants were then placed in a greenhouse at 20-24° C. and 60-90% relative atmospheric humidity. After 7 days, the extent of the mildew development was determined visually in % infection of the entire leaf area.

Compound	% infection of the leaves after application of an aqueous preparation comprising . . . ppm of active compound (Puccinia recondita; 16 ppm) [%]	% infection of the leaves after application of an aqueous preparation comprising . . . ppm of active compound (Puccinia recondita; 63 ppm) [%]	% infection of the leaves after application of an aqueous preparation comprising . . . ppm of active compound (Puccinia recondita; 250 ppm) [%]	% infection of the leaves after application of an aqueous preparation comprising . . . ppm of active compound (Pyrenophora teres; 63 ppm) [%]	% infection of the leaves after application of an aqueous preparation comprising . . . ppm of active compound (Pyrenophora teres; 250 ppm) [%]	% infection of the leaves after application of an aqueous preparation comprising . . . ppm of active compound ([1]; 63 ppm) [%]	% infection of the leaves after application of an aqueous preparation comprising . . . ppm of active compound ([1]; 250 ppm) [%]	% infection of the leaves after application of an aqueous preparation comprising . . . ppm of active compound (Pyrenophora teres; 16 ppm) [%]	% infection of the leaves after application of an aqueous preparation comprising . . . ppm of active compound ([1]; 16 ppm) [%]
CC[C@H](C)Nc1c(-c2c(C)cccc2F)c(Cl)nc2ncnn12 [comparison (S)-amine of I.-10]	100	100	100	100	40	100	100		
CCC(C)Nc1c(-c2c(C)cccc2F)c(Cl)nc2ncnn12 (centres unmarked) [I.-10]	60	40	15	3	3	60	15		
CC[C@H](C)Nc1c(-c2c(F)cc(F)cc2F)c(Cl)nc2ncnn12 [comparison (S)-amine of I.-13]	60	3				60		60	100
CCC(C)Nc1c(-c2ccc(F)cc2C)c(Cl)nc2ncnn12 [comparison (S)-amine of I.-22]	100	100	100	7		70	70	80	80
CC[C@@H](C)Nc1c(-c2c(F)cc(F)cc2F)c(Cl)nc2ncnn12 [I.-13]	3	0				40		20	60
Cc1cccc(F)c1-c1c(Cl)nc2ncnn2c1NC(C)C(C)C (single isomer, unassigned) [I.-11a]	80	5	5	0	0	7	5	5	7
Cc1cccc(F)c1-c1c(Cl)nc2ncnn2c1NC(C)C(C)C [comparison (S)-amine of I.-11a]	100	60	30	100	100	60	60	100	80
